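Briefly, cells in 96-well plates were exposed to five compound concentrations for 48 h, and endpoints were estimated by linear interpolation. GI50: concentration for 50% inhibition of growth. TGI marks complete inhibition of growth.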
Assays:
Assay in all cases: growth of human tumour cells (NCI), 48 h
[1] = tested on: NCI-H23 lung
[2] = tested on: A498 renal
[3] = tested on: SK-MEL-5 melanoma
[4] = tested on: MOLT-4 leukemia
[5] = tested on: 786-0 renal
[6] = tested on: SNB-75 CNS
[7] = tested on: RPMI-8226 leukemia
[8] = tested on: UACC-62 melanoma
[9] = tested on: PC-3 prostate
[10] = tested on: SF-539 CNS
[11] = tested on: MALME-3M melanoma
[12] = tested on: NCI-H522 lung
[13] = tested on: TK-10 renal
[14] = tested on: COLO 205 colon
[15] = tested on: RXF 393 renal
[16] = tested on: KM12 colon
[17] = tested on: SNB-19 CNS
[18] = tested on: CAKI-1 renal
[19] = tested on: NCI/ADR-RES ovarian
[20] = tested on: MCF7 breast
[21] = tested on: HCT-15 colon
[22] = tested on: SR leukemia
[23] = tested on: U251 CNS
[24] = tested on: M14 melanoma
[25] = tested on: LOX IMVI melanoma
[26] = tested on: NCI-H460 lung
[27] = tested on: NCI-H226 lung
[28] = tested on: HS 578T breast
[29] = tested on: BT-549 breast
[30] = tested on: HCC-2998 colon
[31] = tested on: A549 NSCLC
[32] = tested on: T-47D breast
[33] = tested on: SF-268 CNS
[34] = tested on: OVCAR-5 ovarian
[35] = tested on: SK-MEL-28 melanoma
[36] = tested on: K-562 leukemia
[37] = tested on: HT29 colon
[38] = tested on: HOP-92 NSCLC
[39] = tested on: CCRF-CEM leukemia
[40] = tested on: SF-295 CNS
[41] = tested on: SN12C renal
[42] = tested on: OVCAR-8 ovarian
[43] = tested on: SK-MEL-2 melanoma
[44] = tested on: UACC-257 melanoma
[45] = tested on: DU-145 prostate
[46] = tested on: MDA-MB-435
[47] = tested on: HCT-116 colon
[48] = tested on: SW-620 colon
[49] = tested on: UO-31 renal
[50] = tested on: OVCAR-3 ovarian
[51] = tested on: OVCAR-4 ovarian
[52] = tested on: IGROV1 ovarian
[53] = tested on: HOP-62 NSCLC
[54] = tested on: ACHN renal
[55] = tested on: EKVX NSCLC
[56] = tested on: SK-OV-3 ovarian
[57] = tested on: MDA-MB-231 breast
[58] = tested on: HL-60(TB) leukemia

`CN(C)c1ccc(-c2cc(-c3ccc(Nc4nc(Nc5ccc(Cl)cc5)nc(Nc5ccc(Cl)cc5)n4)cc3)nc(N)c2C#N)cc1` was tested. Which GI50 [1] did it give?
The GI50 was 30.5 µM.

What about the TGI [1] of the same compound?
Its TGI is > 100 µM.

And the GI50 [2]?
The GI50 was 6.41 µM.

And the TGI [2]?
Its TGI is > 100 µM.

And the GI50 [3]?
The GI50 was 4.56 µM.

And the TGI [3]?
The TGI was > 100 µM.

What about the GI50 [4] of the same compound?
The GI50 was 2.13 µM.

What about the TGI [4] of the same compound?
The TGI was 20.5 µM.

What about the GI50 [5] of the same compound?
The GI50 was 16.7 µM.

What about the TGI [5] of the same compound?
The TGI was > 100 µM.

And the GI50 [6]?
The GI50 was 3.05 µM.

What about the TGI [6] of the same compound?
Its TGI is > 100 µM.

And the GI50 [7]?
The GI50 was 0.864 µM.

And the TGI [7]?
The TGI was 53.8 µM.

What about the GI50 [8] of the same compound?
Its GI50 is 20.4 µM.

What about the TGI [8] of the same compound?
Its TGI is 92.7 µM.

And the GI50 [9]?
Its GI50 is 1.53 µM.

What about the TGI [9] of the same compound?
The TGI was 7.44 µM.

And the GI50 [10]?
Its GI50 is 19.8 µM.

And the TGI [10]?
The TGI was > 100 µM.

And the GI50 [11]?
Its GI50 is 69.4 µM.

What about the TGI [11] of the same compound?
Its TGI is > 100 µM.

And the GI50 [12]?
Its GI50 is 48.4 µM.

And the TGI [12]?
The TGI was > 100 µM.

What about the GI50 [13] of the same compound?
The GI50 was 53.8 µM.

What about the TGI [13] of the same compound?
Its TGI is > 100 µM.

What about the GI50 [14] of the same compound?
Its GI50 is 7.88 µM.

What about the TGI [14] of the same compound?
The TGI was > 100 µM.

And the GI50 [15]?
Its GI50 is 1.96 µM.

And the TGI [15]?
Its TGI is 6.77 µM.

What about the GI50 [16] of the same compound?
The GI50 was 10.3 µM.

What about the TGI [16] of the same compound?
The TGI was > 100 µM.

And the GI50 [17]?
Its GI50 is > 100 µM.

And the TGI [17]?
Its TGI is > 100 µM.

What about the GI50 [18] of the same compound?
Its GI50 is > 100 µM.

And the TGI [18]?
The TGI was > 100 µM.

And the GI50 [19]?
Its GI50 is > 100 µM.

What about the TGI [19] of the same compound?
Its TGI is > 100 µM.

What about the GI50 [20] of the same compound?
Its GI50 is 2.38 µM.

And the TGI [20]?
The TGI was 47.7 µM.

And the GI50 [21]?
Its GI50 is 3.7 µM.

And the TGI [21]?
Its TGI is > 100 µM.

What about the GI50 [22] of the same compound?
Its GI50 is 1.32 µM.

What about the TGI [22] of the same compound?
The TGI was 9.83 µM.

What about the GI50 [23] of the same compound?
Its GI50 is 10.7 µM.

What about the TGI [23] of the same compound?
The TGI was > 100 µM.

What about the GI50 [24] of the same compound?
Its GI50 is 18.3 µM.

What about the TGI [24] of the same compound?
Its TGI is > 100 µM.

What about the GI50 [25] of the same compound?
The GI50 was 18.9 µM.

What about the TGI [25] of the same compound?
Its TGI is > 100 µM.

What about the GI50 [26] of the same compound?
Its GI50 is 15.4 µM.

What about the TGI [26] of the same compound?
Its TGI is > 100 µM.

And the GI50 [27]?
Its GI50 is 3.58 µM.

And the TGI [27]?
Its TGI is 24.4 µM.

What about the GI50 [28] of the same compound?
Its GI50 is 3.94 µM.

And the TGI [28]?
The TGI was 59.3 µM.

And the GI50 [29]?
The GI50 was 71.2 µM.

And the TGI [29]?
Its TGI is > 100 µM.

And the GI50 [30]?
The GI50 was 99.4 µM.

And the TGI [30]?
The TGI was > 100 µM.

And the GI50 [31]?
The GI50 was 13.9 µM.

What about the TGI [31] of the same compound?
Its TGI is > 100 µM.

What about the GI50 [32] of the same compound?
The GI50 was 7.59 µM.

And the TGI [32]?
The TGI was > 100 µM.

What about the GI50 [33] of the same compound?
Its GI50 is 40.3 µM.

What about the TGI [33] of the same compound?
Its TGI is > 100 µM.

And the GI50 [34]?
The GI50 was > 100 µM.

What about the TGI [34] of the same compound?
The TGI was > 100 µM.

And the GI50 [35]?
Its GI50 is 2.05 µM.

And the TGI [35]?
The TGI was 6.35 µM.

What about the GI50 [36] of the same compound?
Its GI50 is 5.2 µM.

What about the TGI [36] of the same compound?
Its TGI is > 100 µM.

And the GI50 [37]?
The GI50 was 8.85 µM.

And the TGI [37]?
The TGI was > 100 µM.

And the TGI [38]?
The TGI was 2.93 µM.

And the GI50 [39]?
The GI50 was 2.59 µM.

And the TGI [39]?
The TGI was 36.5 µM.

What about the GI50 [40] of the same compound?
The GI50 was 13.9 µM.

And the TGI [40]?
Its TGI is > 100 µM.

What about the GI50 [41] of the same compound?
Its GI50 is 13.8 µM.

What about the TGI [41] of the same compound?
The TGI was > 100 µM.

What about the GI50 [42] of the same compound?
Its GI50 is 6.38 µM.

What about the TGI [42] of the same compound?
Its TGI is > 100 µM.

And the GI50 [43]?
Its GI50 is 10.8 µM.

What about the TGI [43] of the same compound?
The TGI was 86.7 µM.

What about the GI50 [44] of the same compound?
Its GI50 is 12.3 µM.

And the TGI [44]?
The TGI was > 100 µM.

What about the GI50 [45] of the same compound?
The GI50 was 34.6 µM.

And the TGI [45]?
Its TGI is > 100 µM.

What about the GI50 [46] of the same compound?
The GI50 was 27.9 µM.

What about the TGI [46] of the same compound?
Its TGI is > 100 µM.

What about the GI50 [47] of the same compound?
Its GI50 is 4.99 µM.

And the TGI [47]?
The TGI was > 100 µM.

And the GI50 [48]?
Its GI50 is 5.6 µM.

What about the TGI [48] of the same compound?
Its TGI is 22.7 µM.

And the GI50 [49]?
The GI50 was 47.6 µM.

And the TGI [49]?
The TGI was > 100 µM.

What about the GI50 [50] of the same compound?
The GI50 was 13.6 µM.

What about the TGI [50] of the same compound?
The TGI was 92 µM.

And the GI50 [51]?
The GI50 was 9.86 µM.

What about the TGI [51] of the same compound?
The TGI was > 100 µM.

What about the GI50 [52] of the same compound?
The GI50 was 4.53 µM.

What about the TGI [52] of the same compound?
The TGI was > 100 µM.

What about the GI50 [53] of the same compound?
The GI50 was > 100 µM.

And the TGI [53]?
Its TGI is > 100 µM.

What about the GI50 [54] of the same compound?
Its GI50 is 13.1 µM.

And the TGI [54]?
The TGI was > 100 µM.

What about the GI50 [55] of the same compound?
Its GI50 is > 100 µM.

What about the TGI [55] of the same compound?
Its TGI is > 100 µM.

What about the GI50 [56] of the same compound?
Its GI50 is > 100 µM.

What about the TGI [56] of the same compound?
The TGI was > 100 µM.

What about the GI50 [57] of the same compound?
Its GI50 is 5.51 µM.

And the TGI [57]?
The TGI was 60.3 µM.

And the GI50 [58]?
Its GI50 is 10.6 µM.

And the TGI [58]?
Its TGI is > 100 µM.
